This is an account of results in ChEMBL document CHEMBL3856285, “Recent progress in the identification of adenosine monophosphate-activated protein kinase (AMPK) activators” (Bioorg Med Chem Lett, 2016).

SMILES strings stand for the structures.

Assay [1] addresses T1, AMP-activated protein kinase (AMPK) alpha-1/beta-1/gamma-1 (Homo sapiens, UniProt P54619+Q13131+Q9Y478). The assay can be described thus: Activation of human recombinant AMPK alpha1/beta1/gamma1 expressed in African green monkey COS7 cells assessed as increase in biotinylated […] (1 to 120 residues) peptide phosphorylation at Ser-79 residue measured after 60 mins by Alphascreen assay. Format: cell-based, COS-7. In general terms: Alpha assays give light when donor and acceptor beads are brought close together.

For assay [2], the target named is AMP-activated protein kinase (AMPK) alpha-1/beta-1/gamma-1 (Homo sapiens) (UniProt P54619+Q9Y478+Q13131). The assay can be described thus: Activation of human recombinant AMPK alpha1/beta1/gamma1 expressed in African green monkey COS7 cells assessed as increase in biotinylated […] (1 to 120 residues) peptide phosphorylation at Ser-79 residue measured after 60 mins by Alphascreen assay relative to control. To be noted: COS-7. Type of assay: cell-based.

Another assay addresses AMPK alpha2/beta1/gamma1 (Homo sapiens, UniProt P54619+P54646+Q9Y478). The experiment in a line: Activation of human recombinant AMPK alpha2/beta1/gamma1 expressed in African green monkey COS7 cells assessed as increase in biotinylated […] (1 to 120 residues) peptide phosphorylation at Ser-79 residue measured after 60 mins by Alphascreen assay. Format: cell-based, COS-7.
Assay [3] has as its target AMPK alpha2/beta1/gamma1 (Homo sapiens) (UniProt P54646+P54619+Q9Y478). The assay can be described thus: Activation of human recombinant AMPK alpha2/beta1/gamma1 expressed in African green monkey COS7 cells assessed as increase in biotinylated […] (1 to 120 residues) peptide phosphorylation at Ser-79 residue measured after 60 mins by Alphascreen assay relative to control. Format: cell-based. As to conditions: COS-7.

The target of assay [4] is T2, AMPK alpha1/beta2/gamma1 (Homo sapiens, UniProt O43741+P54619+Q13131). The assay can be described thus: Activation of human recombinant AMPK alpha1/beta2/gamma1 expressed in African green monkey COS7 cells assessed as increase in biotinylated […] (1 to 120 residues) peptide phosphorylation at Ser-79 residue measured after 60 mins by Alphascreen assay. Format: cell-based, COS-7.

Assay [5] has as its target T2, AMPK alpha1/beta2/gamma1. The experiment in a line: Activation of human recombinant AMPK alpha1/beta2/gamma1 expressed in African green monkey COS7 cells assessed as increase in biotinylated […] (1 to 120 residues) peptide phosphorylation at Ser-79 residue measured after 60 mins by Alphascreen assay relative to control. Type of assay: cell-based. To be noted: COS-7.

Another assay has as its target AMPK alpha2/beta2/gamma1 (Homo sapiens, UniProt O43741+P54619+P54646). The experiment in a line: Activation of human recombinant AMPK alpha2/beta2/gamma1 expressed in African green monkey COS7 cells assessed as increase in biotinylated […] (1 to 120 residues) peptide phosphorylation at Ser-79 residue measured after 60 mins by Alphascreen assay. Format: cell-based, COS-7.

Assay [6] concerns the target AMPK alpha2/beta2/gamma1 (Homo sapiens) (UniProt P54646+O43741+P54619). The assay can be described thus: Activation of human recombinant AMPK alpha2/beta2/gamma1 expressed in African green monkey COS7 cells assessed as increase in biotinylated […] (1 to 120 residues) peptide phosphorylation at Ser-79 residue measured after 60 mins by Alphascreen assay relative to control. To be noted: COS-7. Type of assay: cell-based.

The next assay concerns the target AMPK alpha2/beta2/gamma3 (Homo sapiens, UniProt O43741+P54646+Q9UGI9). The experiment in a line: Activation of human recombinant AMPK alpha2/beta2/gamma3 expressed in African green monkey COS7 cells assessed as increase in biotinylated […] (1 to 120 residues) peptide phosphorylation at Ser-79 residue measured after 60 mins by Alphascreen assay. Format: cell-based, COS-7.

In assay [7] the target is AMPK alpha2/beta2/gamma3 (Homo sapiens) (UniProt P54646+O43741+Q9UGI9). The experiment in a line: Activation of human recombinant AMPK alpha2/beta2/gamma3 expressed in African green monkey COS7 cells assessed as increase in biotinylated […] (1 to 120 residues) peptide phosphorylation at Ser-79 residue measured after 60 mins by Alphascreen assay relative to control. Format: cell-based. As to conditions: COS-7.

Assay [8] has as its target T1, AMP-activated protein kinase (AMPK) alpha-1/beta-1/gamma-1. The assay can be described thus: Activation of full length human recombinant N-terminal GST-tagged AMPK alpha1/beta1/gamma1 expressed in baculovirus infected High Five cells using NH2-HMRSAMSGLHLVKRR CONH2 substrate after 60 mins by ADP-Glo kinase assay. Details: species or system BTI-TN-5B1-4. On the technique in general: ADP-Glo first removes unused ATP, then detects ADP through luciferase.

T1 sequence (P54619 whole entry, the tested form may be a part): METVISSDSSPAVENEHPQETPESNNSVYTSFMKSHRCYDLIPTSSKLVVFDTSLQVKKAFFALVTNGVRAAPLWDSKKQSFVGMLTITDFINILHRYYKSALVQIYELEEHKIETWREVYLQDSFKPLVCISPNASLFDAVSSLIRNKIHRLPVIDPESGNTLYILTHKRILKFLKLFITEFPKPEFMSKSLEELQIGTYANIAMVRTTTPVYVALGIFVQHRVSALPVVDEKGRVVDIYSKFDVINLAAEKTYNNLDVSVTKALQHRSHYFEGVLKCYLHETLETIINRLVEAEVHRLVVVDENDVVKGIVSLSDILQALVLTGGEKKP
T1 sequence (Q9Y478 whole entry, the tested form may be a part): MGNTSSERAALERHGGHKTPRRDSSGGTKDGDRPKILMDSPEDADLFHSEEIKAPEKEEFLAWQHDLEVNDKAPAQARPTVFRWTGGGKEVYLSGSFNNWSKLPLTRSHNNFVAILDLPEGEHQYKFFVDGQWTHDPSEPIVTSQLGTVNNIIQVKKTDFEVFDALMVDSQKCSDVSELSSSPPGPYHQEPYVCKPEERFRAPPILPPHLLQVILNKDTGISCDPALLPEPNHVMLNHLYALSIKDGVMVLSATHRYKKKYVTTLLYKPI
T1 sequence (Q13131 whole entry, the tested form may be a part): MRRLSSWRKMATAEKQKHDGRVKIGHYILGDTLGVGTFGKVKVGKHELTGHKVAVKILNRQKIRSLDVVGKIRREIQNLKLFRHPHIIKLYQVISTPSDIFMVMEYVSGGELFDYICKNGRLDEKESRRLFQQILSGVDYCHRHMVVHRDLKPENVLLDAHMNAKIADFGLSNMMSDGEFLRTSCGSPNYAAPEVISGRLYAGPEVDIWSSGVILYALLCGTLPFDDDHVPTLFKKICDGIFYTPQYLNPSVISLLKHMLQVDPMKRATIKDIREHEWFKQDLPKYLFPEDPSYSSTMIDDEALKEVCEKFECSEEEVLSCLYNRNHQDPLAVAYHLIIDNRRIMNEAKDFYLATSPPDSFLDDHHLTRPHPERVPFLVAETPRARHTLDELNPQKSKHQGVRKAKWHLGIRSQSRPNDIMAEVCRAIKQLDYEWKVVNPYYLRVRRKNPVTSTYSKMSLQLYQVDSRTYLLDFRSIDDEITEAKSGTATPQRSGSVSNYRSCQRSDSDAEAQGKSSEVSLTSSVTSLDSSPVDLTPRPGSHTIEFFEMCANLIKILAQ
Chain of AMPK alpha2/beta1/gamma1 (P54646 whole entry, the tested form may be a part): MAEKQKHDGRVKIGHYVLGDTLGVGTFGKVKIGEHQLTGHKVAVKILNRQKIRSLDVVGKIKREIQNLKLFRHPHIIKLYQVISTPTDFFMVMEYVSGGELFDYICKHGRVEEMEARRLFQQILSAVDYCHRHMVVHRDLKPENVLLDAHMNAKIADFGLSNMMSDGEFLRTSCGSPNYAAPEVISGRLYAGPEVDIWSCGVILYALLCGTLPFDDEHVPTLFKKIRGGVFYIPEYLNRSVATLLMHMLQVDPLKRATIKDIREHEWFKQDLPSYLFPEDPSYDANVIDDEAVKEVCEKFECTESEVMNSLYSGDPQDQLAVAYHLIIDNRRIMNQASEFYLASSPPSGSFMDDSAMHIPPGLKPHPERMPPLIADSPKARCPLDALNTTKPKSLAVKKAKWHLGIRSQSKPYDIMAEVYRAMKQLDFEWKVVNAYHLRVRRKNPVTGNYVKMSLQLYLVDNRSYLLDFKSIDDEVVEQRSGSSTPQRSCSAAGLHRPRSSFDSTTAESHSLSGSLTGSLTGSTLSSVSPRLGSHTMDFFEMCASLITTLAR
Chain of AMPK alpha2/beta1/gamma1 (P54619 whole entry, the tested form may be a part): as the sequence (P54619 whole entry, the tested form may be a part) above
Chain of AMPK alpha2/beta1/gamma1 (Q9Y478 whole entry, the tested form may be a part): as the sequence (Q9Y478 whole entry, the tested form may be a part) above
Chain of AMPK alpha2/beta2/gamma1 (P54646 whole entry, the tested form may be a part): as the sequence (P54646 whole entry, the tested form may be a part) above
Chain of AMPK alpha2/beta2/gamma1 (O43741 whole entry, the tested form may be a part): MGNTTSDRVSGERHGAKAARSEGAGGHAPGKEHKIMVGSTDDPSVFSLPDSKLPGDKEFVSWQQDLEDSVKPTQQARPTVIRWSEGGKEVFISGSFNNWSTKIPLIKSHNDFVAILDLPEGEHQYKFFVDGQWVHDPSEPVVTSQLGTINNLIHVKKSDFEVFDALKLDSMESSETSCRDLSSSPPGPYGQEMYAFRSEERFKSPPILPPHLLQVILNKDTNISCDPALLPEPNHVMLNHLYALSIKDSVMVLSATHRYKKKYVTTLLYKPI
Chain of AMPK alpha2/beta2/gamma1 (P54619 whole entry, the tested form may be a part): as the sequence (P54619 whole entry, the tested form may be a part) above
Chain of AMPK alpha2/beta2/gamma3 (P54646 whole entry, the tested form may be a part): as the sequence (P54646 whole entry, the tested form may be a part) above
Chain of AMPK alpha2/beta2/gamma3 (O43741 whole entry, the tested form may be a part): as the sequence (O43741 whole entry, the tested form may be a part) above
Chain of AMPK alpha2/beta2/gamma3 (Q9UGI9 whole entry, the tested form may be a part): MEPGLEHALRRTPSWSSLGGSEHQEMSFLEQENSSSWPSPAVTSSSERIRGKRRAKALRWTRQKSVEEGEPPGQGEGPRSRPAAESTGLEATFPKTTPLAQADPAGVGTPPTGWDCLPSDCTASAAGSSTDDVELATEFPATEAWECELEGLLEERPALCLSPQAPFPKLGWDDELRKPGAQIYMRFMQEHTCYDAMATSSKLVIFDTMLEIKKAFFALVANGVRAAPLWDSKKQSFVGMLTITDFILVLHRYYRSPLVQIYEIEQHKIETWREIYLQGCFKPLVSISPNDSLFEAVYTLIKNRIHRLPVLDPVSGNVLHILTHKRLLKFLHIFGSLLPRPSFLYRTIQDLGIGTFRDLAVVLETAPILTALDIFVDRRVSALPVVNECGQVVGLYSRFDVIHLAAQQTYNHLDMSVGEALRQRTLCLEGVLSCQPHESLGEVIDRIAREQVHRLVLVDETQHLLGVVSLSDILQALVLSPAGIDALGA

On to `Oc1cccc(O)c1-c1ccc(-c2cc3nc(O[C@@H]4CO[C@H]5[C@@H]4OC[C@H]5O)[nH]c3cc2Cl)cc1`, for which the half-maximal effective concentration (EC50) in [1] is 11 nM; on AMPK alpha2/beta1/gamma1, 27 nM; on AMPK alpha1/beta2/gamma1 [4], 4 nM; at AMPK alpha2/beta2/gamma1, 2 nM; at AMPK alpha2/beta2/gamma3, 4 nM. Moreover, the fold change (FC) was determined as 27 in [2]; 13 in assay [3]; 10 at AMPK alpha1/beta2/gamma1 [5]; 13 in [6]; 16 in assay [7].

On to `CS(=O)(=O)Nc1ccc(-c2ccc(-c3nc4nc(O[C@@H]5CO[C@H]6[C@@H]5OC[C@H]6O)[nH]c4cc3Cl)cc2)c(F)c1`, for which the half-maximal effective concentration (EC50) in [8] is 3 nM.

In general, EC50 refers to the midpoint of the concentration-response curve.
